Source: US12109266B2, “Modulating gabarap to modulate immunogenic cell death” (Dana-Farber Cancer Institute, Inc., priority 2020, dated 2024)
“Also recorded” adds a separate entry of the source.

What was measured:
[1] = tested on: 5TGM1 multiple myeloma cell line; assay: Apoptosis assay (Annexin-V/7-AAD flow cytometry); format: cell-based, murine
Description: Apoptosis was evaluated by Annexin-V/7-Aminoactinomycin D (7-AAD) staining and flow cytometric analysis using the PE Annexin V Apoptosis Detection Kit I (BD Biosciences), following the manufacturer's instructions.
Apoptosis was evaluated by Annexin-V/7-Aminoactinomycin D (7-AAD) staining and flow cytometric analysis using the PE Annexin V Apoptosis Detection Kit I (BD Biosciences).

[2] = tested on: AMO1, H929 and KMS11 MM cells; assay: Phagocytosis assay of MM cells by monocyte-derived DCs; format: cell-based, human
Description: (§1) Mo-DCs were generated from CD14+ peripheral blood monocytes were positively selected using magnetic beads (Miltenyi Biotec) and cultured for 6 days in mo-DC differentiation medium containing GM-CSF and IL-4 (130-094-812; Miltenyi Biotec) to generate Mo-DCs. AMO1, KMS11 and H929 cells lines, as well as patient MM cells, were stained with CellTrace™ Far Red (ThermoFisher Scientific), cultured with or without BTZ (for 16 h), and then incubated in 48-well plates for 4 h at 1:1 ratio with CellTrace™ CFSE stained Mo-DCs. Cells were then collected, and phagocytosis analysis was performed by flow cytometry and confocal microscopy. Analagous phagocytosis experiments was performed using 5TGM1 murine MM and immature murine DC line JAWSII.
Collected cells were analyzed using the BD LRSFortessa™ X-20 flow cytometer. Mo-DCs that engulfed MM cells were CFSE and FAR-RED double positive. Fold increase in percentage of double positive DCs after co-culture with BTZ treated vs untreated MM cells was compared.
Mo-DCs were generated from CD14+ peripheral blood monocytes from healthy donors, positively selected using magnetic beads (Miltenyi Biotec), cultured for 6 days in mo-DC differentiation medium containing GM-CSF and IL-4 (130-094-812; Miltenyi Biotec). AMO1 and NCI-H929 cells lines, as well as patient MM cells, were stained with CellTrace™ Far Red (ThermoFisher Scientific), cultured with or without BTZ for 16 h, and then incubated in 48-well plates for 4 h at 1:1 ratio with CellTrace™ CFSE stained Mo-DCs. Cells were then collected, and phagocytosis analysis was performed by flow cytometry and confocal microscopy. Analagous phagocytosis experiments were performed using 5TGM1 murine multiple myeloma and JAWSII cell line that was used as source of immature murine DCs.
Flow cytometry-based assay: Collected cells were analyzed using the BD LRSFortessa X-20 flow cytometer. Mo-DCs that engulfed MM cells were CFSE and FAR-RED double positive. Fold increase in percentage of double positive DCs after co-culture with BTZ treated vs untreated MM cells was compared.

[3] = tested on: 5TGM1 MM cells; assay: Cell surface exposure of CALR (flow cytometry); format: cell-based, murine; details: 16 h
Description: (§2) Multiple myeloma (MM) cells were seeded in 12-well plates (2×10^5 per well), treated with BTZ for 16 h at indicated concentrations, and then stained with Alexa Fluor647® anti-calreticulin antibody (ab196159, Abcam) and 7-AAD. Analysis of fluorescence intensity on 7-AAD negative cells was assessed using BD LRSFortessa™ X-20 flow cytometer.
as §2, with “MM” for “Multiple myeloma (MM)”, “cells” for “cells was assessed”, “LRSFortessa” for “LRSFortessa™”

[4] = tested on: 5TGM1 tumors; assay: IHC CD3 staining of tumors; format: in vivo, mouse; details: tumors retrieved after one administration of the drugs
Description: NOD/SCID and C57BL/KaLwRijHsd mice were subcutaneously (sc) injected with 1×10^6 5TGM1 either WT or Calr^KO cells in PBS. When tumor became measurable, mice were randomized to receive either PBS or BTZ administered intra peritoneally (i.p.) 0.5 mg/kg twice/week for 2 weeks. Tumor sizes were measured as previously described (46), and mice were sacrificed when tumors reached 2 cm in diameter or ulceration or major compromise in quality of life. A parallel experiment was performed to allow for tumor harvesting after two injections ip of BTZ for RNA-seq analysis, as detailed below. For BTZ and STING agonist combination studies, C57BL/KaLwRijHsd (n=5/group) and SCID/NOD (n=6/group) mice bearing 5TGM1 WT and C57BL/KaLwRijHsd mice (n=5/group) bearing 5TGM1 Sting^KO tumors were randomized to receive: PBS, BTZ (0.375 mg/kg twice a week for 2 weeks, i.p.), ADU-S100 (100 μg) administered in the peritumoral area (day 1 and 2), or a combination. Tumor sizes were measured as described above. A parallel experiment in C57BL/KaLwRijHsd mice was performed to allow for tumor harvesting after one administration of either BTZ or ADU-S100. Tumors were fixed in 10% formalin for 24 h, and then maintained in 70% ethanol prior to paraffin embedding and processing for IHC to detect CD3 (#nb600 Ab, Novus Bio).

[5] = tested on: 5TGM1 MM cells; assay: Phagocytosis assay of MM cells by JAWSII DCs; format: cell-based, murine
Description: as §1
Collected cells were analyzed using the BD LRSFortessa™ X-20 flow cytometer. Mo-DCs that engulfed MM cells were CFSE and FAR-RED double positive. Fold increase in percentage of double positive DCs after co-culture with BTZ treated vs untreated MM cells was compared. […]
Flow cytometry-based assay: Collected cells were analyzed using the BD LRSFortessa X-20 flow cytometer. […]
Confocal microscopy-based assay: 5TGM1 cells (15000) were cytospun for 7 min at 300 rpm, fixed in 4% paraformaldehyde for 20 min at RT, and washed three times with 1% FBS in PBS. […] Slides were examined using Yokogawa Spinning Disk Confocal/TIRF System, and analyzed with ImageJ software.

[6] = tested on: human DCs; assay: DCs maturation assay; format: cell-based
Description: Immature DCs were generated as described above (“Generation of Mo-DCs” section). DCs were cultured alone or with untreated or BTZ pretreated-AMO1 (5 nM) for 24 h. DCs alone were cultured i) without maturation stimuli; ii) with 50 ng/ml of TNFalpha (Millipore Sigma); or iii) with 5 nM of BTZ. After 24 h, cells were harvested and analyzed by flow cytometry using the following Abs: anti-CD83-APC (#551073), CD86-FITC (#555657) and 7-AAD from BD Biosciences and CD11c-BV650 (#563404, Biolegend). Dead cells were excluded by 7-AAD positivity, and CD83 and CD86 expression was evaluated on CD11c+ cells.

## CC(C)C[C@H](NC(=O)[C@H](Cc1ccccc1)NC(=O)c1cnccn1)B(O)O [BTZ, bortezomib]
[1]; 5TGM1, BTZ 1-10 nM, 16 h
  multiple myeloma cell death, as measured by phosphatidylserine exposure: induced multiple myeloma cell death in a dose-dependent manner
[1]; 5TGM1 WT vs Calr^KO clones, BTZ 7.5 nM
  apoptosis (annexin-V-positive cells): triggered apoptosis in both 5TGM1 WT cells and the Calr^KO clones at the same extent
[2]; AMO1, NCI-H929 WT, BTZ 16 h, then 4 h co-culture
  phagocytosis of BTZ-treated MM cells by DCs: induces functional maturation of dendritic cells (DCs) in vitro; also recorded: enhanced uptake of BTZ-treated MM cells; also recorded: engulfed by monocyte-derived DCs after 4 h of co-culture
[2]; AMO1 GABARAP^KO
  phagocytosis of BTZ-treated MM cells by DCs: did not stimulate phagocytosis by DCs; also recorded: GABARAP^KO abrogates phagocytosis by DCs
[2]; GABARAP^KO in 2 ICD-sensitive cell lines (AMO1, H929)
  induction of ICD: abrogated the induction of ICD by BTZ
[2]; KMS11 / GABARAP-null cells
  induction of ICD: resistant to induction of ICD by BTZ
[2]; KMS11 / GABARAP-null cells, listed as Bortezomib
  induction of ICD: does not induce ICD in GABARAP-null cells
[2]; KMS11 cells (monoallelic deletion of GABARAP)
  functional maturation of co-cultured DCs (phagocytosis assay): did not lead to an increase of CRT exposure or functional maturation of co-cultured DCs
[3]; 5TGM1 Sting^KO, BTZ 7.5 nM
  CALR exposure on cell surface: did not alter CALR exposure process
[3]; 5TGM1 WT, BTZ 1-10 nM
  CALR exposure on cell surface: can induce hallmarks of ICD in human and murine MM cell lines; also recorded: dose-dependent increase of CTLR exposure
[4]
  CD3+ T cell infiltration within tumors (IHC): increased CD3+ T cell infiltration within tumors
[5]; 5TGM1 Calr^KO cells
  phagocytosis of BTZ-treated MM cells by DCs: calreticulin is necessary for induction of ICD by BTZ; also recorded: abrogated in vitro when DCs were co-cultured with CRT^KOMM cells; also recorded: inhibited
[5]; 5TGM1 WT, BTZ 16 h, then 4 h co-culture with mDCs
  phagocytosis of BTZ-treated MM cells by DCs: engulfed by monocyte-derived DCs after 4 h of co-culture
[6]; 24 h co-culture with BTZ (5 nM) pretreated AMO1
  expression of CD83 and CD86 maturation markers on DCs: higher expression of CD86/CD83 on cell surface; also recorded: increased expression of CD83 and CD86 maturation markers
[6]; DCs with BTZ alone (5 nM), no MM cells
  expression of CD83 and CD86 maturation markers on DCs: not triggered by either untreated multiple myeloma cells or BTZ alone
